Measured values taken from BindingDB's records for doi:10.1021/jm00355a015 (1983).

biological target: arachidonate 5-lipoxygenase (Cavia porcellus); experiment: Inhibitory activity against 5-lipoxygenase

| SMILES | IC50 |
| --- | --- |
| CCCCC/C=C\C\C=C/C=C/C=C/C1CC1CCCC(=O)O (stereo not drawn) [4-(2-Tetradeca-1,3,5,8-tetraenyl-cyclopropyl)-butyric acid] | 3 µM |
| CCCCCCCCCCCCCCC1CC1CCCC(=O)O (stereo not drawn) [4-(2-Tetradecyl-cyclopropyl)-butyric acid] | 100 µM |
| CCCCC/C=C\C\C=C/C=C/C=C/C1SC1CCCC(=O)OC (stereo not drawn) [4-(3-Tetradeca-1,3,5,8-tetraenyl-thiiranyl)-butyric acid methyl ester] | 65 µM |
| CCCCC/C=C\C\C=C/C=C/C=C/[C@@H]1O[C@H]1CCCC(=O)O [4-{(2S,3S)-3-[(1E,3E,5Z,8Z)-tetradeca-1,3,5,8-tetraen-1-yl]oxiran-2-yl}butanoic acid] | 2 µM |
| CCCCC/C=C\C\C=C/C=C/C=C/C1CC1CCCCC(=O)O (stereo not drawn) [5-(2-Tetradeca-1,3,5,8-tetraenyl-cyclopropyl)-pentanoic acid] | 20 µM |
| CCCCC/C=C\C/C=C\C/C=C\C=C\C(CO)CCCC(=O)O (stereo not drawn) [5-Hydroxymethyl-icosa-6,8,11,14-tetraenoic acid] | 100 µM |
| CCCCC/C=C\C/C=C\CC=CC=CC(=O)CCCC(=O)OC [5-Oxo-icosa-6,8,11,14-tetraenoic acid methyl ester] | 20 µM |
| CCCCC/C=C\C/C=C\C/C=C\C=C\[C@@H](O)CCCC(=O)O [(5S,6E,8Z,11Z,14Z)-5-hydroxyicosa-6,8,11,14-tetraenoic acid] | 2 µM |
